{"source": "ChEMBL document CHEMBL1671754", "about": "“Reduced expression of the vca0421 gene of Vibrio cholerae O1 results in innate resistance to ciprofloxacin” (2010)", "assay_type_in_all_cases": "functional", "key": {"[1]": {"assay": "Antibacterial activity against Vibrio cholerae O1 569B harboring gyrA and parC genes by 2-fold agar dilution method"}, "[2]": {"assay": "Antibacterial activity against Vibrio cholerae O1 mTn-321 harboring Ser to Ile mutation at 83 position in gyrA and parC genes by 2-fold agar dilution method"}, "Escherichia coli [3]": {"tested_on": "Escherichia coli", "assay": "Antibacterial activity against Escherichia coli JM109 harboring plasmid ptac85"}, "[4]": {"assay": "Antibacterial activity against Vibrio cholerae O1 CIP0.25-1 harboring Ser to Ile mutation at 83 position in gyrA and parC genes by 2-fold agar dilution method"}, "Escherichia coli [5]": {"tested_on": "Escherichia coli", "assay": "Antibacterial activity against Escherichia coli JM109 harboring plasmid ptac85-vca0421"}}, "data": [{"smiles": "O=C(O)c1cn(C2CC2)c2cc(N3CCNCC3)c(F)cc2c1=O", "note": "[CIPROFLOXACIN]", "values": [{"measurement": "MIC", "setting": "[1]", "result": 0.004, "unit": "µg/mL"}]}, {"smiles": "CCn1cc(C(=O)O)c(=O)c2cc(F)c(N3CCNCC3)nc21", "note": "[ENOXACIN]", "values": [{"measurement": "MIC", "setting": "[2]", "result": 0.25, "unit": "µg/mL"}, {"measurement": "MIC", "setting": "[1]", "result": 0.0313, "unit": "µg/mL"}, {"measurement": "MIC", "setting": "Escherichia coli [3]", "result": 4, "unit": "µg/mL"}, {"measurement": "MIC", "setting": "[4]", "result": 2, "unit": "µg/mL"}, {"measurement": "MIC", "setting": "Escherichia coli [5]", "result": 2, "unit": "µg/mL"}]}, {"smiles": "CCn1cc(C(=O)O)c(=O)c2cc(F)c(N3CCNCC3)cc21", "note": "[NORFLOXACIN]", "values": [{"measurement": "MIC", "setting": "[2]", "result": 0.125, "unit": "µg/mL"}, {"measurement": "MIC", "setting": "[1]", "result": 0.0078, "unit": "µg/mL"}, {"measurement": "MIC", "setting": "Escherichia coli [3]", "result": 1, "unit": "µg/mL"}, {"measurement": "MIC", "setting": "[4]", "result": 2, "unit": "µg/mL"}, {"measurement": "MIC", "setting": "Escherichia coli [5]", "result": 1, "unit": "µg/mL"}]}, {"smiles": "C[C@@H]1CN(c2c(F)c(N)c3c(=O)c(C(=O)O)cn(C4CC4)c3c2F)C[C@H](C)N1", "note": "[SPARFLOXACIN]", "values": [{"measurement": "MIC", "setting": "[2]", "result": 0.0625, "unit": "µg/mL"}, {"measurement": "MIC", "setting": "[1]", "result": 0.004, "unit": "µg/mL"}, {"measurement": "MIC", "setting": "Escherichia coli [3]", "result": 0.25, "unit": "µg/mL"}, {"measurement": "MIC", "setting": "[4]", "result": 0.125, "unit": "µg/mL"}, {"measurement": "MIC", "setting": "Escherichia coli [5]", "result": 0.125, "unit": "µg/mL"}]}, {"smiles": "CN(C)[C@@H]1C(O)=C(C(N)=O)C(=O)[C@@]2(O)C(O)=C3C(=O)c4c(O)cccc4[C@@](C)(O)[C@H]3C[C@@H]12", "note": "[TETRACYCLINE]", "values": [{"measurement": "MIC", "setting": "[1]", "result": 0.5, "unit": "µg/mL"}, {"measurement": "MIC", "setting": "Escherichia coli [3]", "result": 16, "unit": "µg/mL"}, {"measurement": "MIC", "setting": "[4]", "result": 4, "unit": "µg/mL"}, {"measurement": "MIC", "setting": "Escherichia coli [5]", "result": 8, "unit": "µg/mL"}]}]}
